Measured values published in patent US12410164B2, “Heterocyclic compounds and medical use thereof” (FONDAZIONE TELETHON, priority 2018, dated 2025).
Entries after “also recorded” stand apart in the source; their conditions may differ.

Assays:
F508del-CFTR [1] = target: T1, F508del-CFTR (Homo sapiens, UniProt P13569, DEL508-508); experiment: HS-YFP kinetic fluorescence (iodide quenching rate) assay in CFBE41o− cells; type: cell-based; set-up: expressed in transfected cells; host or cells: CFBE41o- cells with expression of F508del-CFTR and HS-YFP (generated as in Sondo et al. 2011); settings: for AI (%) additivity index: Table 1, compound at 10 μM plus VX-809, (QRTOT − QRVX)/QRVX, HS-YFP assay; for structure-activity comparison of corrector potency/activity: relative to the analogue
Procedure, shortened: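 CFBE41o- cells co-expressing F508del-CFTR and HS-YFP, treated 24 h with compound (0.1-0.2% DMSO), then stimulated with 20 μM forskolin plus 50 μM genistein. Fluorescence was read for 14 s during NaI injection. Background-subtracted, normalized traces were fitted exponentially to give maximum quenching rate (QR).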

F508del-CFTR [2] = target: T1, F508del-CFTR; experiment: Analysis of F508del-CFTR maturation by immunoblot in CFBE41o− cells; type: cell-based; set-up: expressed in transfected cells; host or cells: CFBE41o- cells with expression of F508del-CFTR and HS-YFP (generated as in Sondo et al. 2011); settings: compound 10 μM plus VX-809 1 μM, 24 hr
Method: CFBE41o− cells were grown to confluence on 60-mm diameter dishes and lysed in RIPA buffer containing a complete protease inhibitor (Roche; cat. n. 11697498001). Cell lysates were centrifuged at 12000 rpm at 4° C. for 10 min. Supernatant protein concentration was calculated using the BCA assay (Euroclone; cat. n. EMP014500) following the manufacturer's instructions. Equal amounts of total protein content (30 μg) were separated onto 10% Criterion TGX Precast gels (Bio-rad laboratories Inc.; cat. n. 4561033), transferred to nitrocellulose membrane with Trans-Blot Turbo system (Bio-rad Laboratories Inc.) and analyzed by Western blotting. Primary antibody for CFTR was anti-CFTR 596 (University of North Carolina at Chapel Hill, and Cystic Fibrosis Foundation Therapeutics, see Cui L, et al. J. Mol Biol 2007, 365, 981-994) at 1:5000 dilution. As secondary antibody, anti-mouse HRP-conjugated Ab 97023 (Abcam) was used at 1:10000 dilution. Results were subsequently visualized by chemiluminescence using the SuperSignal West Femto Substrate (Thermo Scientific) and the Molecular Imager ChemiDoc XRS System.
To analyze the mechanism of action of the compounds of the invention, two types of experiments were carried out. In the first type of experiment, the electrophoretic mobility of F508del-CFTR protein was determined by immunoblot assay. This is a frequently used method to assess the effect of correctors at the protein level. In control conditions, F508del-CFTR migrates predominantly as a single band of 150 kDa called “band B”. This is the immature form of the protein residing in the endoplasmic reticulum. When the protein folding and stability is improved by correctors, an additional band appears at higher molecular weight (170 kDa). This is the so-called band C, which represents the mature form of the CFTR protein that has reached the Golgi compartment and acquired full glycosylation.

T1 sequence (P13569 with tags, fused parts or gaps DEL508-508): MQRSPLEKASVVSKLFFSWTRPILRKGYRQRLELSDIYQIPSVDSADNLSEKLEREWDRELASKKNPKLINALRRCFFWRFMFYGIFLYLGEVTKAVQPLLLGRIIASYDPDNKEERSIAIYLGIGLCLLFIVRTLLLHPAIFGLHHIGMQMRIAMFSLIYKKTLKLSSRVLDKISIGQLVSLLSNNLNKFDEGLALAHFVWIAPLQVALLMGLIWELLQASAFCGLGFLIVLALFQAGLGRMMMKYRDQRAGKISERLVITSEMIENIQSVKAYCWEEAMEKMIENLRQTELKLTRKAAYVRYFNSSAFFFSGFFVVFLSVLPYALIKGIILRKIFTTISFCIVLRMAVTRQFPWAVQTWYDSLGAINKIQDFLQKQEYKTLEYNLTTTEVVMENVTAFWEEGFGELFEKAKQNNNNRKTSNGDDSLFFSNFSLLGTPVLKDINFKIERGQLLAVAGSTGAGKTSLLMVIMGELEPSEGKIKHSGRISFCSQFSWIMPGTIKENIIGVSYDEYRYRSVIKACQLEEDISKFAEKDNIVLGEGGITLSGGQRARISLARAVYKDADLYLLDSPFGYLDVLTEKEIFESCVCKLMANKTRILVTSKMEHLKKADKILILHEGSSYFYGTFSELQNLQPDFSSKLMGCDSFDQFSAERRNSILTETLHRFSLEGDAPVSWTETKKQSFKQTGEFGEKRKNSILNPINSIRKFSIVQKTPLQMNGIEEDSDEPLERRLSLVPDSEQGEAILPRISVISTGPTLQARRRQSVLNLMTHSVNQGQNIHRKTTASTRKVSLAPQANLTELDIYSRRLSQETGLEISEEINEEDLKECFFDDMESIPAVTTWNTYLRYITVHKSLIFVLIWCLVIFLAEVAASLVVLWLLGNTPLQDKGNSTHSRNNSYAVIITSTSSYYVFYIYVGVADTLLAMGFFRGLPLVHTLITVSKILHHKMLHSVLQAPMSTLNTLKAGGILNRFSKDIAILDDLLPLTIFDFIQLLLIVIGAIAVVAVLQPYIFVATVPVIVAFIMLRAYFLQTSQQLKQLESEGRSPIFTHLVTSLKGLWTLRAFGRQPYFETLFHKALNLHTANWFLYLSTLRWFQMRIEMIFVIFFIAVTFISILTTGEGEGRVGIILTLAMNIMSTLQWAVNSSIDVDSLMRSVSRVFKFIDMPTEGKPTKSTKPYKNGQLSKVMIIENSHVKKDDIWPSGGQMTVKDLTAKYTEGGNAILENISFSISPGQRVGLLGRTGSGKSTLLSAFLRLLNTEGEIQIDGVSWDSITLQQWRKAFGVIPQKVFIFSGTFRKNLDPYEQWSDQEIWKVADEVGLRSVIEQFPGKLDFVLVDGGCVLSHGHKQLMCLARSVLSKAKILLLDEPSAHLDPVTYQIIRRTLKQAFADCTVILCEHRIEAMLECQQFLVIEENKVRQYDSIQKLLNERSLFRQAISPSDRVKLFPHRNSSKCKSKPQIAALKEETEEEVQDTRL

## CCOC(=O)c1c(Br)c2c(n1Cc1cccc(C)c1)-c1[nH]c(=O)c(S(=O)(=O)c3ccccc3)cc1CC2 [PP028, Ethyl 3-bromo 1-(3-methylbenzyl)-8-oxo-7-(phenylsulfonyl)-4,5,8,9-tetrahydro-1H-pyrrolo[3,2-h]quinoline-2-carboxylate]
F508del-CFTR [1]
  AI (%) additivity index: 278%
  structure-activity comparison of corrector potency/activity: important increase in efficiency in combination with the VX-809 and potency
F508del-CFTR [2]
  band C (mature form) expression versus VX-809 alone: markedly enhances the abundance of the mature form of the protein; also recorded: marked increase in band C expression

## CCOC(=O)c1c(Br)c2c(n1Cc1ccc(C)cc1)-c1[nH]c(=O)c(S(=O)(=O)c3ccccc3)cc1CC2 [PP008, Ethyl 7-(benzenesulfonyl)-3-bromo-1-[(4-methylphenyl)methyl]-8-oxo-4,5,8,9-tetrahydro-1H-pyrrolo[3,2-h]quinoline-2-carboxylate]
F508del-CFTR [1]
  AI (%) additivity index: 207%
  structure-activity comparison of corrector potency/activity: important increase in potency; also recorded: more potent than the non-halogenated analogues
F508del-CFTR [1]; compound plus VX-809 1 μM, 24 h
  F508del-CFTR activity (quenching rate) of combination with VX-809: strong synergistic effect
F508del-CFTR [2]
  band C (mature form) expression versus VX-809 alone: markedly enhances the abundance of the mature form of the protein; also recorded: marked increase in band C expression
